Data on 20 compounds can be found in patent publication US20110263557A1, “COMPOUNDS AND COMPOSITIONS AS MODULATORS OF GPR119 ACTIVITY” (IRM LLC, priority 2008, published 2011).

Molecules are shown by their SMILES.

This experiment has as its target T1, human GPR119 (Homo sapiens, UniProt Q8TDV5).
T1 construct: expressed in transfected cells
T1 sequence (Q8TDV5 1-335): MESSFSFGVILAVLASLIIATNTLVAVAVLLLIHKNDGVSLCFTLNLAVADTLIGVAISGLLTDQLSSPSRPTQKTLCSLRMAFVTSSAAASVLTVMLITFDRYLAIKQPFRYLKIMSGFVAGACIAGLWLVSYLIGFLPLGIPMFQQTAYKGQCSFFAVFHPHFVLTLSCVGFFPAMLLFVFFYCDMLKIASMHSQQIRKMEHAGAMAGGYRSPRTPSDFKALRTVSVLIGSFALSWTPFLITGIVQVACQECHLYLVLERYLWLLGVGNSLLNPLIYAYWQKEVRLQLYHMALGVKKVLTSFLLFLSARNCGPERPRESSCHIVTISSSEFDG
Description: Cyclic AMP assay in stable cell line (Flp-In-CHO-hGPR119, HTRF). The class given is cell-based. The note with it: Flp-In-CHO-hGPR119 cells, intracellular cAMP by HTRF, 1 mM IBMX, 37° C. for 30 minutes; read-out: CHO-GPR119-HTRF (3158). As to the method:
Flp-In-CHO cells (Invitrogen, Cat.#R758-07) are maintained in Ham's F12 medium supplemented with 10% fetal bovine serum, 1% antibiotic mixture and 2 mM L-glutamine. The cells are transfected with a DNA mixture containing human GPR119 in pcDNA5/FRT vector and the pOG44 vector (1:9) using Fugene6 (Roche), according to the manufacturer's instruction. After 48 hours, the medium is changed to medium supplemented with 400 μg/ml hygromycin B to initiate the selection of stably transfected cells.
To test the activity of compounds of the invention, Flp-In-CHO-hGPR119 cells are harvested and resuspended in DMEM plus 3% lipid-depleted fetal bovine serum. Forth μl of cells are plated in 384 well plates at a density of 15,000 cells/well. IBMX (3-isobutyl-1-methyl-xanthine) is added to the cells to a final concentration of 1 mM, followed by the addition of 500 nl of the compound to be tested. The cells are incubated at 37° C. for 30 minutes. Equal volume (20 μl) of the HTRF reagents, anti-cAMP-Cryptate and cAMP-XL665, are added to the cells. The plates are incubated at room temperature for 1 hour and read on a HTRF reader according to the manufacturer's instruction.
Compounds of Formula I, in free form or in pharmaceutically acceptable salt form, produced a concentration-dependent increase in intracellular cAMP level. […] For example, the following tables show some EC50 data for a representative sample of compounds of the invention: […]
On the technique in general: In TR-FRET formats the signal depends on donor and acceptor labels being close together.

For `CCc1cnc(N2CCC(Oc3ccc(CN4CCN(S(C)(=O)=O)CC4)cc3)CC2)nc1` [Example A1], the EC50 was 56 nM.
For `CCc1cnc(N2CCC(Oc3ccc(CN4CCN(S(C)(=O)=O)CC4)c(C)c3)CC2)nc1` [Example A2, 5-ethyl-2-(4-(3-methyl-4-((4-(methylsulfonyl)piperazin-1-yl)methyl)phenoxy)piperidin-1-yl)pyrimidine], the EC50 was 203 nM.
Under `CCc1cnc(N2CCC(Oc3ccc(CN4CCN(S(C)(=O)=O)CC4)cc3F)CC2)nc1` [Example A6, 5-ethyl-2-(4-(2-fluoro-4-((4-(methylsulfonyl)piperazin-1-yl)methyl)phenoxy)piperidin-1-yl)pyrimidine] stands 20 nM.
`CCc1cnc(N2CCC(Oc3ccc(CN4CCN(S(C)(=O)=O)CC4)cc3Br)CC2)nc1` [Example A8, 2-(4-(2-bromo-4-((4-(methylsulfonyl)piperazin-1-yl)methyl)phenoxy)piperidin-1-yl)-5-ethylpyrimidine]: the EC50 amounted to 5 nM.
Take `CCc1cnc(N2CCC(Oc3ccc(CN4CCN(S(C)(=O)=O)CC4)nc3)CC2)nc1` [Example A13, 5-ethyl-2-(4-(6-((4-(methylsulfonyl)piperazin-1-yl)methyl)pyridin-3-yloxy)piperidin-1-yl)pyrimidine]: the EC50 was found to be 867 nM.
`CCc1cnc(N2CCC(Oc3ccc(CN4CCN(S(C)(=O)=O)CC4)cc3C(=O)OC)CC2)nc1` [Example A14, methyl 2-(1-(5-ethylpyrimidin-2-yl)piperidin-4-yloxy)-5-((4-(methylsulfonyl)piperazin-1-yl)methyl)benzoate]: the EC50 is 313 nM.
As to `CC1(OC(=O)N2CCC(Oc3ccc(CN4CCN(S(C)(=O)=O)CC4)cc3)CC2)CC1` [Example B2, 1-Methylcyclopropyl 4-(4-((4-(methylsulfonyl)piperazin-1-yl)methyl)phenoxy)piperidine-1-carboxylate], the EC50 amounted to 127 nM.
Turning to `CC1(OC(=O)N2CCC(Oc3ccc(CN4CCN(S(C)(=O)=O)CC4)cc3Cl)CC2)CC1` [Example B3, 1-Methylcyclopropyl 4-(2-chloro-4-((4-(methylsulfonyl)piperazin-1-yl)methyl)phenoxy)piperidine-1-carboxylate], the EC50 came to 22 nM.
Take `CS(=O)(=O)N1CCN(Cc2ccc(OC3CCN(c4ccc(C(F)(F)F)cn4)CC3)cc2)CC1` [Example B6, 1-(methylsulfonyl)-4-(4-(1-(5-(trifluoromethyl)pyridin-2-yl)piperidin-4-yloxy)benzyl)piperazine]: the EC50 is 220 nM.
Under `CC(C)c1noc(N2CCC(Oc3ccc(CN4CCN(S(C)(=O)=O)CC4)cc3Cl)CC2)n1` [Example B11, 5-(4-(2-chloro-4-((4-(methylsulfonyl)piperazin-1-yl)methyl)phenoxy)piperidin-1-yl)-3-isopropyl-1,2,4-oxadiazole] stands 13 nM; under `CN(C)C(=O)c1cnc(N2CCC(Oc3ccc(CN4CCN(S(C)(=O)=O)CC4)cc3Cl)CC2)nc1` [Example B13, 2-(4-(2-chloro-4-((4-(methylsulfonyl)piperazin-1-yl)methyl)phenoxy)piperidin-1-yl)-N,N-dimethylpyrimidine-5-carboxamide], 465 nM.
Turning to `Cn1nnc(-c2cnc(N3CCC(Oc4ccc(CN5CCN(S(C)(=O)=O)CC5)cc4Cl)CC3)nc2)n1` [Example B17, 2-(4-(2-Chloro-4-((4-(methylsulfonyl)piperazin-1-yl)methyl)phenoxy)piperidin-1-yl)-5-(2-methyl-2H-tetrazol-5-yl)pyrimidine], the EC50 was 9 nM.
Turning to `CCc1cnc(N2CCC(Oc3ccc(CN4CCN(S(C)(=O)=O)CC4)cc3CCCOC)CC2)nc1` [Example C2], the EC50 was 187 nM.
As for `CCc1cnc(N2CCC(Oc3ccc(CN4CCN(S(C)(=O)=O)CC4)cc3-c3ccn[nH]3)CC2)nc1` [Example C5, 5-ethyl-2-(4-(4-((4-(methylsulfonyl)piperazin-1-yl)methyl)-2-(1H-pyrazol-5-yl)phenoxy)piperidin-1-yl)pyrimidine], the EC50 came to 44 nM.
As for `CCc1cnc(N2CCC(Oc3ccc(CN4CCN(S(C)(=O)=O)CC4)cc3NCCOC)CC2)nc1` [Example C9, 2-(1-(5-Ethylpyrimidin-2-yl)piperidin-4-yloxy)-N-(2-methoxyethyl)-5-((4-(methylsulfonyl)piperazin-1-yl)methyl)aniline], the EC50 was 136 nM.
Consider `CCc1cnc(N2CCC(Oc3ccc(CN4CCN(S(=O)(=O)CCCO)CC4)cc3Cl)CC2)nc1` [Example D1, 3-(4-(3-Chloro-4-(1-(5-ethylpyrimidin-2-yl)piperidin-4-yloxy)benzyl)piperazin-1-ylsulfonyl)propan-1-ol], for which the EC50 came to 8 nM.
Take `CCc1cnc(N2CCC(Oc3ccc(CC4CCN(S(C)(=O)=O)CC4)cc3Cl)CC2)nc1` [Example E2, 2-(4-(2-Chloro-4-((1-(methylsulfonyl)piperidin-4-yl)methyl)phenoxy)piperidin-1-yl)-5-ethylpyrimidine]: the EC50 worked out at 3 nM.
Under `CCc1cnc(N2CCC(Oc3ccc(CN4CCN(S(C)(=O)=O)CC4=O)cc3Cl)CC2)nc1` [Example E4, 1-(3-Chloro-4-(1-(5-ethylpyrimidin-2-yl)piperidin-4-yloxy)benzyl)-4-(methylsulfonyl)piperazin-2-one] stands 812 nM; under `CCc1cnc(N2CCC(Oc3ccc(CN4CCC(c5nnn(C)n5)CC4)cc3Cl)CC2)nc1` [Example E12, 2-(4-(2-chloro-4-((4-(2-methyl-2H-tetrazol-5-yl)piperidin-1-yl)methyl)phenoxy)piperidin-1-yl)-5-ethylpyrimidine], 2680 nM.
Take `CCc1cnc(N2CCC(Oc3ccc(CN4CC(N(C)S(C)(=O)=O)C4)cc3Cl)CC2)nc1` [Example E15, N-(1-(3-Chloro-4-(1-(5-ethylpyrimidin-2-yl)piperidin-4-yloxy)benzyl)azetidin-3-yl)-N-methylmethanesulfonamide]: the EC50 amounted to 114 nM.
